From PubChem BioAssay (NCI)
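Cells were grown in 96-well plates and exposed to each compound for 48 hours at five concentrations; endpoints were interpolated linearly between bracketing concentrations, or set to the highest concentration if not reached. TGI: total growth inhibition.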

What was measured:
Test in all cases: growth of human tumour cells (NCI), 48 h
SR leukemia = tested on: SR leukemia
HT29 colon = tested on: HT29 colon
SNB-75 CNS = tested on: SNB-75 CNS
ACHN renal = tested on: ACHN renal
MDA-MB-435 = tested on: MDA-MB-435
NCI-H23 lung = tested on: NCI-H23 lung
CCRF-CEM leukemia = tested on: CCRF-CEM leukemia
PC-3 prostate = tested on: PC-3 prostate
SF-295 CNS = tested on: SF-295 CNS
EKVX NSCLC = tested on: EKVX NSCLC
786-0 renal = tested on: 786-0 renal
SK-MEL-28 melanoma = tested on: SK-MEL-28 melanoma
NCI-H460 lung = tested on: NCI-H460 lung
OVCAR-5 ovarian = tested on: OVCAR-5 ovarian
MCF7 breast = tested on: MCF7 breast
UACC-62 melanoma = tested on: UACC-62 melanoma
IGROV1 ovarian = tested on: IGROV1 ovarian
U251 CNS = tested on: U251 CNS
SF-268 CNS = tested on: SF-268 CNS
SF-539 CNS = tested on: SF-539 CNS
LOX IMVI melanoma = tested on: LOX IMVI melanoma
TK-10 renal = tested on: TK-10 renal
HCC-2998 colon = tested on: HCC-2998 colon
A498 renal = tested on: A498 renal
UACC-257 melanoma = tested on: UACC-257 melanoma
MDA-MB-231 breast = tested on: MDA-MB-231 breast
UO-31 renal = tested on: UO-31 renal
HOP-62 NSCLC = tested on: HOP-62 NSCLC
OVCAR-8 ovarian = tested on: OVCAR-8 ovarian
MOLT-4 leukemia = tested on: MOLT-4 leukemia
MDA-N = tested on: MDA-N
KM12 colon = tested on: KM12 colon
HL-60(TB) leukemia = tested on: HL-60(TB) leukemia
CAKI-1 renal = tested on: CAKI-1 renal
HCT-116 colon = tested on: HCT-116 colon
K-562 leukemia = tested on: K-562 leukemia
BT-549 breast = tested on: BT-549 breast
RPMI-8226 leukemia = tested on: RPMI-8226 leukemia
HCT-15 colon = tested on: HCT-15 colon
DU-145 prostate = tested on: DU-145 prostate
RXF 393 renal = tested on: RXF 393 renal
SN12C renal = tested on: SN12C renal
M14 melanoma = tested on: M14 melanoma
A549 NSCLC = tested on: A549 NSCLC
SK-OV-3 ovarian = tested on: SK-OV-3 ovarian
MALME-3M melanoma = tested on: MALME-3M melanoma
OVCAR-4 ovarian = tested on: OVCAR-4 ovarian
COLO 205 colon = tested on: COLO 205 colon
NCI-H226 lung = tested on: NCI-H226 lung
HS 578T breast = tested on: HS 578T breast
SNB-19 CNS = tested on: SNB-19 CNS
NCI/ADR-RES ovarian = tested on: NCI/ADR-RES ovarian
SK-MEL-5 melanoma = tested on: SK-MEL-5 melanoma
OVCAR-3 ovarian = tested on: OVCAR-3 ovarian
SW-620 colon = tested on: SW-620 colon
HOP-92 NSCLC = tested on: HOP-92 NSCLC
SK-MEL-2 melanoma = tested on: SK-MEL-2 melanoma

## CC1(C)CC(=O)C2=C(C1)NC1=C(C2)C(=O)CC(C)(C)C1
SR leukemia
  TGI: > 100 µM
HT29 colon
  TGI: > 100 µM
SNB-75 CNS
  TGI: > 100 µM
ACHN renal
  TGI: > 100 µM
MDA-MB-435
  TGI: > 100 µM
NCI-H23 lung
  TGI: > 100 µM
CCRF-CEM leukemia
  TGI: > 100 µM
PC-3 prostate
  TGI: > 100 µM
SF-295 CNS
  TGI: > 100 µM
EKVX NSCLC
  TGI: > 100 µM
786-0 renal
  TGI: > 100 µM
SK-MEL-28 melanoma
  TGI: > 100 µM
NCI-H460 lung
  TGI: > 100 µM
OVCAR-5 ovarian
  TGI: > 100 µM
MCF7 breast
  TGI: > 100 µM
UACC-62 melanoma
  TGI: > 100 µM
IGROV1 ovarian
  TGI: > 100 µM
U251 CNS
  TGI: > 100 µM
SF-268 CNS
  TGI: > 100 µM
SF-539 CNS
  TGI: > 100 µM
LOX IMVI melanoma
  TGI: > 100 µM
TK-10 renal
  TGI: > 100 µM
HCC-2998 colon
  TGI: > 100 µM
A498 renal
  TGI: > 100 µM
UACC-257 melanoma
  TGI: > 100 µM
MDA-MB-231 breast
  TGI: > 100 µM
UO-31 renal
  TGI: > 100 µM
HOP-62 NSCLC
  TGI: > 100 µM
OVCAR-8 ovarian
  TGI: > 100 µM
MOLT-4 leukemia
  TGI: > 100 µM
MDA-N
  TGI: > 100 µM
KM12 colon
  TGI: > 100 µM
HL-60(TB) leukemia
  TGI: > 100 µM
CAKI-1 renal
  TGI: > 100 µM
HCT-116 colon
  TGI: > 100 µM
K-562 leukemia
  TGI: > 100 µM
BT-549 breast
  TGI: > 100 µM
RPMI-8226 leukemia
  TGI: > 100 µM
HCT-15 colon
  TGI: > 100 µM
DU-145 prostate
  TGI: > 100 µM
RXF 393 renal
  TGI: > 100 µM
SN12C renal
  TGI: > 100 µM
M14 melanoma
  TGI: > 100 µM
A549 NSCLC
  TGI: > 100 µM
SK-OV-3 ovarian
  TGI: > 100 µM
MALME-3M melanoma
  TGI: > 100 µM
OVCAR-4 ovarian
  TGI: > 100 µM
COLO 205 colon
  TGI: > 100 µM
NCI-H226 lung
  TGI: > 100 µM
HS 578T breast
  TGI: > 100 µM
SNB-19 CNS
  TGI: > 100 µM
NCI/ADR-RES ovarian
  TGI: > 100 µM
SK-MEL-5 melanoma
  TGI: > 100 µM
OVCAR-3 ovarian
  TGI: > 100 µM
SW-620 colon
  TGI: > 100 µM

## COc1ccc(-c2c3c(n(C4OC(COC(C)=O)C(OC(C)=O)C(OC(C)=O)C4OC(C)=O)c(=S)c2C#N)CCC3)cc1 (configuration not stated)
SR leukemia
  TGI: > 100 µM
HT29 colon
  TGI: > 100 µM
SNB-75 CNS
  TGI: > 100 µM
ACHN renal
  TGI: > 100 µM
MDA-MB-435
  TGI: > 100 µM
NCI-H23 lung
  TGI: > 100 µM
CCRF-CEM leukemia
  TGI: > 100 µM
PC-3 prostate
  TGI: > 100 µM
SF-295 CNS
  TGI: > 100 µM
786-0 renal
  TGI: > 100 µM
SK-MEL-28 melanoma
  TGI: > 100 µM
NCI-H460 lung
  TGI: > 100 µM
OVCAR-5 ovarian
  TGI: > 100 µM
MCF7 breast
  TGI: > 100 µM
UACC-62 melanoma
  TGI: > 100 µM
IGROV1 ovarian
  TGI: > 100 µM
U251 CNS
  TGI: > 100 µM
SF-268 CNS
  TGI: > 100 µM
SF-539 CNS
  TGI: > 100 µM
LOX IMVI melanoma
  TGI: > 100 µM
TK-10 renal
  TGI: > 100 µM
HCC-2998 colon
  TGI: > 100 µM
UACC-257 melanoma
  TGI: > 100 µM
UO-31 renal
  TGI: > 100 µM
HOP-62 NSCLC
  TGI: > 100 µM
MOLT-4 leukemia
  TGI: > 100 µM
MDA-N
  TGI: > 100 µM
KM12 colon
  TGI: > 100 µM
HL-60(TB) leukemia
  TGI: > 100 µM
CAKI-1 renal
  TGI: > 100 µM
HCT-116 colon
  TGI: > 100 µM
K-562 leukemia
  TGI: > 100 µM
BT-549 breast
  TGI: > 100 µM
RPMI-8226 leukemia
  TGI: > 100 µM
HCT-15 colon
  TGI: > 100 µM
DU-145 prostate
  TGI: > 100 µM
RXF 393 renal
  TGI: > 100 µM
SN12C renal
  TGI: > 100 µM
M14 melanoma
  TGI: > 100 µM
A549 NSCLC
  TGI: > 100 µM
SK-OV-3 ovarian
  TGI: > 100 µM
MALME-3M melanoma
  TGI: > 100 µM
HOP-92 NSCLC
  TGI: 49.3 µM
OVCAR-4 ovarian
  TGI: > 100 µM
COLO 205 colon
  TGI: > 100 µM
HS 578T breast
  TGI: > 100 µM
SNB-19 CNS
  TGI: > 100 µM
NCI/ADR-RES ovarian
  TGI: > 100 µM
SK-MEL-2 melanoma
  TGI: > 100 µM
SK-MEL-5 melanoma
  TGI: > 100 µM
OVCAR-3 ovarian
  TGI: > 100 µM
SW-620 colon
  TGI: > 100 µM
